≈ marks a conversion by molar mass, not a printed value. Read-outs that look alike come from different tables or passages of the source.

Data set [1] in a line: Stability in simulated intestinal fluid. In kind it is physicochemical. The conditions noted are these: simulated intestinal fluid pH 7.4, 37° C.; read-out: SIF T1/2 (converted). Here is the method: (§1) Particularly relevant are water solubility, partition coefficient and stability in gastric and intestinal fluids. […] The solubility in water of a orally administered prodrug should be greater than at least about 0.1 mg/mL for optimal formulation and the half-lives in simulated gastric fluid and simulated intestinal fluid should be 1-2 h and 2-4 h respectively to allow sufficient time to traverse the stomach and be absorbed in the intestine.

A short description of a further data set: Solubility. The class given is physicochemical. As for the experimental part: as §1
Another data set in a line: in vitro. Conditions: human, Caco-2, Caco-2 (2-7d) Papp. The class given is in vitro ADME. As for the experimental part:
To further evaluate potential behavior in human subjects, the transport through Caco-2 cells was evaluated for the putative prodrugs. Caco-2 cells are commonly used to evaluated the potential absorption/permeability of molecules (G. Gaviraghi et al. in Pharmacokinetic optimization in drug research. Biological, Pharmacokinetic and Computational Strategies. B. Testa et al. eds. Wiley Interscience VCH, Zurich 2001 pp 3-14).
Powders of Krebs-Henseleit buffer, calcium chloride dihydrate, and sodium bicarbonate were purchased from Sigma (St. Louis, Mo.). Caco-2 cells (Passage ˜100) were obtained from Roche Basel. DMEM/high medium, 4-(2-hydroxyethyl)-1-piperazineethane-sulfonic acid (HEPES), and bovine serum were obtained from JRH Bioscience (Lenexa, Kans.). MEM nonessential amino acids, L-glutamine, penicillin, and streptomycin were obtained from GIBCO Labs, Life Tech. LLC (Grand Island, N.Y.). Snapwell cell culture inserts ([…], 1.12 cm^2, 0.4 μm pore size) were obtained from Costar (Cambridge, Mass.).
Cells were grown in 75-cm^2 flasks and maintained at 37° C. in an atmosphere of 5% CO2 and 95% air. Culture media consisted of DMEM/high medium supplemented with 5% bovine serum, 25 mM HEPES, 1% MEM non-essential amino acids, 1% L-glutamine, 100 U/mL penicillin, and 100 μg/mL streptomycin. Cultures were passaged every week at a split ratio of 1-3. For the permeability studies, Caco-2 cells at passage number 110-120 were plated at a density of 400,000 cells/cm^2 on Transwell polycarbonate filters in Snapwell inserts and allowed to culture for 7 days prior to use.
Krebs-Henseleit bicarbonate buffer containing 10 mM glucose and 2.5 mM CaCl2 adjusted to pH 6.5 and 7.4 were prepared per packet instructions. Powder salts were quantitatively dissolved in about 90% of required volume with Millipore water. Calcium chloride dihydrate and sodium bicarbonate were added before pH adjustment with 1N HCl or 1N NaOH. Additional Millipore water was added to bring the solution to final volume. The solution was sterilized by filtration using membrane with a porosity of 0.22 microns and stored in the refrigerator ([…]) until use.
Differentiated cells were obtained from Cell Culture Core Facility and allowed to equilibrate at 37° C. in an atmosphere of 5% CO2 and 95% air. Snapwells inserts, containing caco-2 monolayers were rinsed in 37° C. equilibrated Krebs-Henseleit pH 7.4 buffer.
The cell insert was utilized as the diffusion chamber. The pH of the Krebs-Henseleit buffer in the apical and basolateral chambers was 6.5 and 7.4, respectively, and the initial concentration of substrate in apical side was 100 μM. […]
The Papp was calculated using the following formula: […]

Data set [2] can be described thus: Experimentally determined distribution coefficient. In kind it is physicochemical. The conditions noted are these: octanol/buffered aqueous solution, pH 7.4; read-out: log D (distribution coefficient). An excerpt: The expression PO/W as used herein refers to the octanol/water partition coefficient. The expression clogP as used herein refers to the calculated PO/W. Computer programs which calculate PO/W are readily available to the pharmaceutical and medicinal chemist. The term distribution coefficient refers to the experimentally determined partition coefficient between octanol and a buffered aqueous solution. The partition coefficient and distribution coefficient are generally similar but the latter is a function of the pH of the aqueous solution whereas the PO/W is independent of pH.

Data set [3] can be described thus: Stability in simulated gastric fluid. The class given is physicochemical. Conditions: simulated gastric fluid pH 1.2, 37° C.; read-out: SGF T1/2 (converted). As for the experimental part:
as §1

In the next data set the test system is HCV. Conditions: monotherapy; cited from earlier work.
[4] abbreviates: aqueous media, water, or buffer pH 6.5, read-out: Solubility.
Setting [5] is: simulated gastric fluid (SGF), simulated gastric fluid, read-out: Solubility in SGF.
The mark [6] stands for this setting: simulated intestinal fluid (SIF), fassgf or other biorelevant, media is SIF, read-out: Solubility.

For orientation: solubility means the dissolved amount per volume that the medium holds. By Papp A→B is commonly meant the apparent permeability from the apical to the basolateral side of a cell layer. Low readings indicate slow passage, high ones fast passage. In the case of `CC(C)C(=O)OC[C@H]1O[C@@H](n2ccc(N)nc2=O)[C@](C)(F)[C@@H]1OC(=O)C(C)C` [I-2, Isobutyric acid (2R,3R,4R,5R)-5-(4-amino-2-oxo-2H-pyrimidin-1-yl)-4-fluoro-3-isobutyryloxy-4-methyl-tetrahydro-furan-2-ylmethyl ester], the half-life is 866 h in data set [1] and 25.1 h in data set [3]. Also, the values for the solubility in “Solubility” (setting [4]) and in “Solubility” (setting [5]) were 180 µg/mL (≈ 0.451 mM) and 13300 µg/mL (≈ 33.3 mM), respectively. Moreover, the Papp A→B at 30 min, 100 μM in “in vitro” was found to be 3.93 ×10⁻⁶ cm/s. Moreover, the logD in data set [2] stood at 1.67.
Usually melting point stands for the temperature, or range, at which the solid turns liquid. Take `CCC(=O)OC[C@H]1O[C@@H](n2ccc(N)nc2=O)[C@](C)(F)[C@@H]1OC(=O)CC` [I-3, Propionic acid (2R,3R,4R,5R)-5-(4-amino-2-oxo-2H-pyrimidin-1-yl)-4-fluoro-4-methyl-3-propionyloxy-tetrahydro-furan-2-ylmethyl ester]: the melting point was in the range of 185.2 to 186 °C. In data set [1], the half-life is 72 h. In addition, the solubility in the data set “Solubility” (setting [5]) is 13600 µg/mL (≈ 36.6 mM). Also, in “Solubility” (setting [6]), the solubility was 3700 µg/mL (≈ 9.96 mM). Moreover, in data set [2], the logD is 0.9. In data set [3], the half-life was 9 h.
For `CC(C)COC(=O)OC[C@H]1O[C@@H](n2ccc(N)nc2=O)[C@](C)(F)[C@@H]1OC(=O)OCC(C)C` [I-4, Carbonic acid (2R,3R,4R,5R)-5-(4-amino-2-oxo-2H-pyrimidin-1-yl)-4-fluoro-2-isobutoxycarbonyloxymethyl-4-methyl-tetrahydro-furan-3-yl ester isobutyl ester], the melting point lay in the range of 210 to 211.5 °C. Besides, the half-life in data set [1] was > 15 h. Moreover, the solubility in “Solubility” (setting [5]) is 160 µg/mL (≈ 0.348 mM). Also, the solubility in “Solubility” (setting [6]) was 13 µg/mL (≈ 0.0283 mM). In addition, the Papp A→B at 30 min, 100 μM in the data set “in vitro” is 6.4 ×10⁻⁶ cm/s. For the same molecule, in data set [3], the half-life was > 7 h.
For the molecule `CCCOC(=O)OC[C@H]1O[C@@H](n2ccc(N)nc2=O)[C@](C)(F)[C@@H]1OC(=O)OCCC.Cl` [I-5, Carbonic acid (2R,3R,4R,5R)-5-(4-amino-2-oxo-2H-pyrimidin-1-yl)-4-fluoro-4-methyl-2-propoxycarbonyloxymethyl-tetrahydro-furan-3-yl ester propyl ester; hydrochloride salt], the melting point was in the range of 192 to 194.4 °C. Further, the half-life in data set [1] was > 11 h. Besides, the solubility in the data set “Solubility” (setting [4]) amounted to 130 µg/mL. For the same molecule, the Papp A→B at 30 min, 100 μM in “in vitro” came out at 13.4 ×10⁻⁶ cm/s. The half-life in data set [3] is > 10.4 h.
Consider `C[C@@]1(F)[C@H](O)[C@@H](CO)O[C@H]1n1ccc(N)nc1=O` [I-6, 4-amino-1-((2R,3R,4R,5R)-3-fluoro-4-hydroxy-5-hydroxymethyl-3-methyl-tetrahydro-furan-2-yl)-1H-pyrimidin-2-one, reference compound], for which the half-life in data set [1] and in data set [3] was > 12 h each time. The solubility in the data set “Solubility” (setting [4]) was 76000 µg/mL (≈ 293 mM). In the data set “in vitro”, this molecule yielded an apparent permeability from apical to basolateral (Papp A→B) at 30 min, 100 μM of 0.4 ×10⁻⁶ cm/s.
As for `NC(=O)c1ncn([C@@H]2O[C@H](CO)[C@@H](O)[C@H]2O)n1` [ribavirin, 1-((2R,3R,4S,5R)-3,4-Dihydroxy-5-hydroxymethyl-tetrahydro-furan-2-yl)-1H-[1,2,4]triazole-3-carboxylic acid amide], in the data set with HCV, the “reduces serum amino transferase levels to normal” value was 40 % of patients and the “serum levels of HCV-RNA” value is “does not lower”.

(Values after patent US7754699B2, “Antiviral nucleosides” (Roche Palo Alto LLC, priority 2005, dated 2010).)
